Results from patent US20240239806A1, “COMPOUNDS, COMPOSITIONS AND METHODS OF TREATING DISORDERS” (Chengdu Anticancer Bioscience, Ltd., priority 2021, published 2024).
pEC50, pIC50: −log10 of the molar value. Like-named read-outs stand apart in the source and are kept apart here.

Legend:
Format in all cases: cell-based
NCI-H460 [1] = assay: MECP in cancer cell line; conditions: Homo sapiens
Summary of the method: (§1)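 Imaging read-out (IN-Cell 2000): mitotic index at 24 h, polyploidy/DNA content at 48 h, also 72 h. Cells in DMEM/5% FBS, 37 °C, 5% CO2; compound 1 nM–30 μM. Binned A ≤1.0 μM, B ≤10.0 μM, C ≤30.0 μM, D >30.0 μM.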

NCI-H596 [2] = assay: MECP in cancer cell line; conditions: Homo sapiens
Summary of the method: as §1

T2 HCC [3] = assay: MECP in cancer cell line; conditions: Mus musculus
Summary of the method: as §1

HCT116 [4] = assay: MECP in cancer cell line; conditions: Homo sapiens, HCT-116
Summary of the method: as §1

T98G [5] = assay: MECP in cancer cell line; conditions: Homo sapiens
Summary of the method: as §1

Hela [6] = assay: MECP in cancer cell line; conditions: Homo sapiens
Summary of the method: as §1

MDA-MB-231 [7] = assay: MECP in cancer cell line; conditions: Homo sapiens
Summary of the method: as §1

NCI-H23 = assay: MECP in cancer cell line; conditions: Homo sapiens
Summary of the method: as §1

RPEMYC^H2B-GFP cells = assay: Phenotypic screening assay (mitotic arrest, polyploidy); conditions: 1 nM to 30 μM; for pIC50: read-out: Proliferative arrest (>50%)
Summary of the method: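 RPE cells expressing MYC and H2B-EGFP treated with compound at 1 nM–30 μM; mitotic index scored at 24 h and polyploidy (DNA content) at 48 h by automated imaging, with reads at 24, 48 or 72 h. Hits show transient mitotic arrest followed by polyploid accumulation.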

NCI-H460 [8] = assay: MTT assay of cellular proliferation; conditions: Homo sapiens, 50% inhibition of cellular proliferation
Summary of the method: (§2)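 Compound dosing: 1 nM to 30 μM on subconfluent (20-30%) cultures in DMEM, 5% FBS. Readout was MTT reduction over 3-4 h, formazan at A570; EC50 derived.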

NCI-H596 [9] = assay: MTT assay of cellular proliferation; conditions: Homo sapiens, 50% inhibition of cellular proliferation
Summary of the method: as §2

T2 HCC [10] = assay: MTT assay of cellular proliferation; conditions: Mus musculus, 50% inhibition of cellular proliferation
Summary of the method: as §2

HCT116 [11] = assay: MTT assay of cellular proliferation; conditions: Homo sapiens, HCT-116, 50% inhibition of cellular proliferation
Summary of the method: as §2

T98G [12] = assay: MTT assay of cellular proliferation; conditions: Homo sapiens, 50% inhibition of cellular proliferation
Summary of the method: as §2

Hela [13] = assay: MTT assay of cellular proliferation; conditions: Homo sapiens, 50% inhibition of cellular proliferation
Summary of the method: as §2

MDA-MB-231 [14] = assay: MTT assay of cellular proliferation; conditions: Homo sapiens; MDA-MB-231, MTT, 50% inhibition of cellular proliferation
Summary of the method: as §2

[15] = read-out: Min. Effective conc. for Polyploidy (≥5%)

pEC50 (NCI-H460 [8])	pEC50 (NCI-H596 [9])	pEC50 (T2 HCC [10])	pEC50 (HCT116 [11])	pEC50 (Hela [13])	pEC50 (MDA-MB-231 [14])	SMILES	minimal effective concentration (NCI-H460 [1]) [µM]	minimal effective concentration (NCI-H596 [2]) [µM]	minimal effective concentration (T2 HCC [3]) [µM]	minimal effective concentration (HCT116 [4]) [µM]	minimal effective concentration (T98G [5]) [µM]	minimal effective concentration (Hela [6]) [µM]	minimal effective concentration (MDA-MB-231 [7]) [µM]	minimal effective concentration (NCI-H23) [µM]	minimal effective concentration (RPEMYC^H2B-GFP cells; [15]) [µM]	minimal effective concentration (RPEMYC^H2B-GFP cells; read-out: Mitotic Arrest (≥5%)) [µM]	pIC50 (RPEMYC^H2B-GFP cells)	pEC50 (T98G [12])	other results
< 4.52	6.00 to 9.00	6.00 to 9.00	6.00 to 9.00	6.00 to 9.00	6.00 to 9.00	COC(=O)c1cc(Oc2ncnc3cc[nH]c23)cc(C(=O)OC)c1 [Compound 36, dimethyl 5-((5H-pyrrolo[3,2-d]pyrimidin-4-yl)oxy)isophthalate]	1 to 10	0.001 to 1	0.001 to 1	0.001 to 1	0.001 to 1	0.001 to 1	0.001 to 1	0.001 to 1	0.001 to 1	0.001 to 1	6.00 to 9.00	6.00 to 9.00	–
< 4.52	6.00 to 9.00	6.00 to 9.00	6.00 to 9.00	6.00 to 9.00	6.00 to 9.00	COC(=O)c1cc(OC)cc(Oc2ncnc3ccsc23)c1 [Compound 37, methyl 3-methoxy-5-(thieno[3,2-d]pyrimidin-4-yloxy)benzoate]	1 to 10	0.001 to 1	0.001 to 1	0.001 to 1	1 to 10	0.001 to 1	0.001 to 1	0.001 to 1	0.001 to 1	0.001 to 1	6.00 to 9.00	< 4.52	–
< 4.52	6.00 to 9.00	6.00 to 9.00	6.00 to 9.00	6.00 to 9.00	6.00 to 9.00	COC(=O)c1cc(OC)cc(Oc2ncnc3cc[nH]c23)c1 [Compound 34, methyl 3-((5H-pyrrolo[3,2-d]pyrimidin-4-yl)oxy)-5-methoxybenzoate]	1 to 10	0.001 to 1	0.001 to 1	0.001 to 1	1 to 10	0.001 to 1	0.001 to 1	0.001 to 1	0.001 to 1	0.001 to 1	6.00 to 9.00	< 4.52	–
5.00 to 6.00	5.00 to 6.00	5.00 to 6.00	6.00 to 9.00	5.00 to 6.00	6.00 to 9.00	COc1cc(OC)cc(Oc2ccnc3ccccc23)c1 [Compound 7, 4-(3,5-dimethoxyphenoxy)quinoline]	1 to 10	0.001 to 1	1 to 10	0.001 to 1	0.001 to 1	0.001 to 1	0.001 to 1	0.001 to 1	0.001 to 1	0.001 to 1	6.00 to 9.00	6.00 to 9.00	–

SMILES	pEC50 (NCI-H460 [8])	pEC50 (NCI-H596 [9])	pEC50 (T2 HCC [10])	pEC50 (HCT116 [11])	pEC50 (Hela [13])	pEC50 (MDA-MB-231 [14])	minimal effective concentration (NCI-H460 [1]) [µM]	minimal effective concentration (NCI-H596 [2]) [µM]	minimal effective concentration (T2 HCC [3]) [µM]	minimal effective concentration (HCT116 [4]) [µM]	minimal effective concentration (T98G [5]) [µM]	minimal effective concentration (Hela [6]) [µM]	minimal effective concentration (MDA-MB-231 [7]) [µM]	minimal effective concentration (NCI-H23) [µM]	minimal effective concentration (RPEMYC^H2B-GFP cells; [15]) [µM]	minimal effective concentration (RPEMYC^H2B-GFP cells; read-out: Mitotic Arrest (≥5%)) [µM]	pIC50 (RPEMYC^H2B-GFP cells)	pEC50 (T98G [12])	other results
COC(=O)c1cc(OC)cc(Oc2ncnc3cc(OC)c(OC)cc23)c1 [Compound 29]	< 4.52	6.00 to 9.00	6.00 to 9.00	5.00 to 6.00	6.00 to 9.00	6.00 to 9.00	1 to 10	0.001 to 1	0.001 to 1	1 to 10	1 to 10	0.001 to 1	1 to 10	0.001 to 1	0.001 to 1	0.001 to 1	6.00 to 9.00	5.00 to 6.00	–
COC(=O)c1cc(Oc2ncnc3ccsc23)cc(C(=O)OC)c1 [Compound 39, dimethyl 5-(thieno[3,2-d]pyrimidin-4-yloxy)isophthalate]	< 4.52	< 4.52	6.00 to 9.00	6.00 to 9.00	6.00 to 9.00	6.00 to 9.00	1 to 10	0.001 to 1	0.001 to 1	0.001 to 1	0.001 to 1	0.001 to 1	0.001 to 1	0.001 to 1	0.001 to 1	0.001 to 1	6.00 to 9.00	6.00 to 9.00	Min. Effective conc. for Polyploidy (≥5%) (RPEMYC^H2B-GFP cells): B (a value greater than 1.00 μM and less than or equal to 10.0 μM); Mitotic Arrest (≥5%) (RPEMYC^H2B-GFP cells): B (a value greater than 1.00 μM and less than or equal to 10.0 μM); Proliferative arrest (>50%) (RPEMYC^H2B-GFP cells): B (a value greater than 1.00 μM and less than or equal to 10.0 μM); Along with Cell Death (RPEMYC^H2B-GFP cells; listed as 33): B (a value greater than 1.00 μM and less than or equal to 10.0 μM)
